The values that follow come from paper PMC3000536 (Tetrahedron letters, 2011).

What all share (type): biochemical
The target in one assay is Almond β-Glucosidase. In words: Glycosidase inhibition, almond β-glucosidase. Conditions: read-out: IC50 β-Glucosidase Almond.
Assay [1] deals with T1, Rat intestinal cellobiase (Rattus norvegicus, UniProt Q02401).
T1 sequence (Q02401 868-1928): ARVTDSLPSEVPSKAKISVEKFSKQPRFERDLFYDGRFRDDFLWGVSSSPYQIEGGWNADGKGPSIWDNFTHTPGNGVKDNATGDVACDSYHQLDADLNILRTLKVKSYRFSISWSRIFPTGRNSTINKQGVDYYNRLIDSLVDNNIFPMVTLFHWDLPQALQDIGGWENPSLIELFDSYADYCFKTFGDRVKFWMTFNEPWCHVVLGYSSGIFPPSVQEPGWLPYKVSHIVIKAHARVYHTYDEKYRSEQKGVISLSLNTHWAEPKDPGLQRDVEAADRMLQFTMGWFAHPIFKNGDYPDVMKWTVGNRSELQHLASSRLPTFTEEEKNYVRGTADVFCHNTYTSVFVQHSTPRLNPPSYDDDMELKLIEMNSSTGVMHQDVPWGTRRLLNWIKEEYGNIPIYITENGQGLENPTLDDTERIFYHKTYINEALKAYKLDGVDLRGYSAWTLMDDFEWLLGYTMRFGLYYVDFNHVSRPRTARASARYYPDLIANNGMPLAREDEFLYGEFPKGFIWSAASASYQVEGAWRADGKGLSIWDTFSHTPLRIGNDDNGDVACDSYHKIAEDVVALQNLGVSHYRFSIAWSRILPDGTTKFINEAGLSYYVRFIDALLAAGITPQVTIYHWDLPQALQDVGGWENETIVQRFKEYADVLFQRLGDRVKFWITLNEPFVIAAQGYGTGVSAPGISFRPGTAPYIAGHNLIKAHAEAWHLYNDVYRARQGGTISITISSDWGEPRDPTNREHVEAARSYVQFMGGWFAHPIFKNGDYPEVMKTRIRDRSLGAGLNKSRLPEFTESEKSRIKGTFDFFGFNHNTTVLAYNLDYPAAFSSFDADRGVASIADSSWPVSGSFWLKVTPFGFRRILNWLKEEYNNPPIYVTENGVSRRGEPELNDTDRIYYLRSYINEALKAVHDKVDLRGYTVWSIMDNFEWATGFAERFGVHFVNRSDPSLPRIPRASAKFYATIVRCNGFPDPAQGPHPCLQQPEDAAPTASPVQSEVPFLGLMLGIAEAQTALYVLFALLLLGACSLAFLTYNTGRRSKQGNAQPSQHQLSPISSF
Kind of assay: Glycosidase inhibition, rat intestinal cellobiase.

Assay [2] concerns the target Coffee beans α-Galactosidase (Coffea arabica, UniProt Q42656). In words: Glycosidase inhibition, coffee beans α-galactosidase.
For assay [3], the target named is T2, Bovine epididymis α-L-Fucosidase (Bos taurus, UniProt Q2KIM0).
T2 sequence (Q2KIM0 23-468): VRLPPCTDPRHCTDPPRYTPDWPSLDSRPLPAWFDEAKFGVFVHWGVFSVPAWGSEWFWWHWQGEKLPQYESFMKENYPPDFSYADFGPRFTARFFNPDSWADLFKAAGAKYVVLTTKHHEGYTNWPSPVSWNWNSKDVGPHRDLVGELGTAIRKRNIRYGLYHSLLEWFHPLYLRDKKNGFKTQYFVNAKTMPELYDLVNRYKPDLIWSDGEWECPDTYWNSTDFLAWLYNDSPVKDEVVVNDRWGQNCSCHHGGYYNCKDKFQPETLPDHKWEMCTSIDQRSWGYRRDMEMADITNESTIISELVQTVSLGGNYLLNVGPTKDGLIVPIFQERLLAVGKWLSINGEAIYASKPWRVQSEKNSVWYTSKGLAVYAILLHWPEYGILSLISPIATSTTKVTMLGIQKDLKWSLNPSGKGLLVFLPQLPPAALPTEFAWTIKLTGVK
Kind of assay: Glycosidase inhibition, bovine epididymis α-L-fucosidase.

The target in assay [4] is Bovine liver β-Galactosidase. In words: Glycosidase inhibition, bovine liver β-galactosidase. The settings on record: read-out: IC50 β-Galactosidase Bovine liver.
A further assay has as its target Snail β-Mannosidase. Kind of assay: Glycosidase inhibition, snail β-mannosidase. The settings on record: read-out: IC50 β-Mannosidase Snail.
A further assay concerns the target T3, Jack beans α-Mannosidase (Canavalia ensiformis, UniProt C0HJB3).
T3 sequence (C0HJB3 1-981): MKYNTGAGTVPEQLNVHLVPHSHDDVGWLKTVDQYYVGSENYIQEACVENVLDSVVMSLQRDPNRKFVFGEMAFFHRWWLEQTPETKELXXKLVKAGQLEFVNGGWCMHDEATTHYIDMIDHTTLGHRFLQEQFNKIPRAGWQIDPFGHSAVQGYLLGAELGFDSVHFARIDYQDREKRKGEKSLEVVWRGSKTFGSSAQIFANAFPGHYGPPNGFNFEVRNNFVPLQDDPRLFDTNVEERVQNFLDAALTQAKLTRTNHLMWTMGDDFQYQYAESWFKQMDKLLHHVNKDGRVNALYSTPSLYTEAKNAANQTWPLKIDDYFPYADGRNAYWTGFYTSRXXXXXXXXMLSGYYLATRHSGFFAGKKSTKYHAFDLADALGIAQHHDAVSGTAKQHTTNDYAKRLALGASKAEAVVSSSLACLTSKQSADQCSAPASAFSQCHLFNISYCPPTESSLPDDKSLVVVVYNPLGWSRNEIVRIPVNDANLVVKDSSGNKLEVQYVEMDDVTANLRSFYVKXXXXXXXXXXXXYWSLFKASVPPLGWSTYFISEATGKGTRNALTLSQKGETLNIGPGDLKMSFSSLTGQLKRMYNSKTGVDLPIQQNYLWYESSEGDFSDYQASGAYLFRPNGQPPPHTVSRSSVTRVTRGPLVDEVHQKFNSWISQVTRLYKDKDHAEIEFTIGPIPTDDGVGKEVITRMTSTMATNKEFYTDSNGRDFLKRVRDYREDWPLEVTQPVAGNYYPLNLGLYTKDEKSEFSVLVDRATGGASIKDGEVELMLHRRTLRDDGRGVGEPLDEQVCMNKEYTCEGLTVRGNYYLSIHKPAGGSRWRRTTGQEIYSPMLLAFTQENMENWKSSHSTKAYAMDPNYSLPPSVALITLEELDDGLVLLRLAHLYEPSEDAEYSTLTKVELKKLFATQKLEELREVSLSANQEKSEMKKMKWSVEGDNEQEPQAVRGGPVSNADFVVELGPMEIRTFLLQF
Kind of assay: Glycosidase inhibition, jack beans α-mannosidase.

pIC50: −log10 of the molar value.

Coffee beans α-Galactosidase, sequence (Q42656 16-378): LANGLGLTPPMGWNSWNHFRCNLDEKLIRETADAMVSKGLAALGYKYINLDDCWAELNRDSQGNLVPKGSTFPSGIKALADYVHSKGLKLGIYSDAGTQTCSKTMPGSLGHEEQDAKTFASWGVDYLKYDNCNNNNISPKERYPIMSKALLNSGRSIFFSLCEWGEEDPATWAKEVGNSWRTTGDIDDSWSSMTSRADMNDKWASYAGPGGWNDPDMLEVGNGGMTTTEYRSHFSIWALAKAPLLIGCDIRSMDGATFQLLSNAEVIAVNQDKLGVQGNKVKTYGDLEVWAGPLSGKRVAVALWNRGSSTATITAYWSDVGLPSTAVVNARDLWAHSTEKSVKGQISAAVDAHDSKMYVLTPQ

For the molecule `OC[C@H]1NC[C@@H](O)[C@@H]1O` [DAB 3D], the pIC50 at Almond β-Glucosidase was 3.60; in assay [1], 3.12; in assay [2], below 3.00; in assay [3], below 3.00; in assay [4], below 3.00; at Snail β-Mannosidase, below 3.00.
Take `OC[C@@H]1NC[C@H](O)[C@H]1O` [LAB 3L]: the pIC50 (at Almond β-Glucosidase; against Jack beans α-Mannosidase; in assay [1]; in assay [2]; in assay [3]; in assay [4]) was below 3.00 in each case. On Snail β-Mannosidase, the pIC50 was below 3.00.
